Measurements published in patent publication EP4722213A1, “NITROGEN-CONTAINING FUNCTIONAL GROUP-SUBSTITUTED PYRIDAZINOPYRIDONE DERIVATIVE AND USE THEREOF” (Sichuan Huiyu Pharmaceutical Co., Ltd., priority 2023, dated 2024).
Counter-ions that a name gives are not always drawn.

Each compound was assayed against T1, SOS1 (Homo sapiens, UniProt Q07889) (assay: biochemical).
T1 sequence (Q07889 1-1333): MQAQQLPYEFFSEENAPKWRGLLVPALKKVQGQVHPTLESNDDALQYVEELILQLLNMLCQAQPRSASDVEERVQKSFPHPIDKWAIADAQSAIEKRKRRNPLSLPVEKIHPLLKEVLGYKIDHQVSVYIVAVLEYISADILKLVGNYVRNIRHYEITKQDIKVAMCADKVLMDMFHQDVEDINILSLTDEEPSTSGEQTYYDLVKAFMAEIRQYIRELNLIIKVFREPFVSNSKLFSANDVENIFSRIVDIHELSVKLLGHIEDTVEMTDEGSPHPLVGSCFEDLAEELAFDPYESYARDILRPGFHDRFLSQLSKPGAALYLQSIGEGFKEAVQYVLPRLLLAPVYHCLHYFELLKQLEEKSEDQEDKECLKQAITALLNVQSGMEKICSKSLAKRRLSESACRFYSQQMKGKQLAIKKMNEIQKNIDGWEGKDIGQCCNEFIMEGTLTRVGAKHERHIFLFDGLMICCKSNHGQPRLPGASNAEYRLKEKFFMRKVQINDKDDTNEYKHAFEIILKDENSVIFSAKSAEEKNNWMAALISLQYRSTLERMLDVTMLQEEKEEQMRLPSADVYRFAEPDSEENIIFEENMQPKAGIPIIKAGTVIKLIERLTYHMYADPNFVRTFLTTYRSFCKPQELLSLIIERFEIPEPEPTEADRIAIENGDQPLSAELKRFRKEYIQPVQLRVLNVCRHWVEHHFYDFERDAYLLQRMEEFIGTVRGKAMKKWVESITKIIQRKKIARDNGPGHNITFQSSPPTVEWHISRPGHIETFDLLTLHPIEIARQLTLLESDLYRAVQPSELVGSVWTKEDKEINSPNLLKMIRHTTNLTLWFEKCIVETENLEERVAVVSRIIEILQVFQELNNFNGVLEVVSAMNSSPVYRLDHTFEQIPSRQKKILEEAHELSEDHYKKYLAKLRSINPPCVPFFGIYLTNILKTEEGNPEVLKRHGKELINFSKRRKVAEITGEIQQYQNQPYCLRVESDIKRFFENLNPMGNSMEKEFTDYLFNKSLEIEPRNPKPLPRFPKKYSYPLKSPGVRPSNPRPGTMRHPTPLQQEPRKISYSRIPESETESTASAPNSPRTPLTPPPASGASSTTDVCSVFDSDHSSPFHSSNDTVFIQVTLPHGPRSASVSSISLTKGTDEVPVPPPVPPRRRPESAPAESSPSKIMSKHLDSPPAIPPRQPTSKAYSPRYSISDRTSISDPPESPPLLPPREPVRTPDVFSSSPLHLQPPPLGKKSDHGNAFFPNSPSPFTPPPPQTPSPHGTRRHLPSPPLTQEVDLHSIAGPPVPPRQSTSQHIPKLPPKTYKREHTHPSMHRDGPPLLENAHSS
Cc1c([C@@H](C)Nc2nnc(N3CCN(C)CC3)c3cc(=O)n(C4(C)CC4)cc23)cccc1S(=O)(=O)C(F)F [Example 209, (R)-4-((1-(3-((difluoromethyl)sulfonyl)-2-methylphenyl)ethyl)amino)-6-(1-methylcyclopropyl)-1-(4-methylpiperazin-1-yl)pyrido[3,4-d]pyridazin-7(6H)-one] showed an IC50 of 4.4 nM. CCN1CCN(c2nnc(N[C@H](C)c3cccc(C#N)c3C)c3cn(C4CC4)c(=O)cc23)CC1 [Example 224, (R)-3-(1-((6-cyclopropyl-1-(4-ethylpiperazin-1-yl)-7-oxo-6,7-dihydropyrido[3,4-d]pyridazin-4-yl)amino)ethyl)-2-methylbenzonitrile] was tested, and the IC50 was 8.4 nM. In the case of C[C@@H](Nc1nnc(NN2CCN(C)CC2)c2cc(=O)n(C3(C)CC3)cc12)c1cccc(C(F)(F)F)c1 [Example 159, (R)-6-(1-methylcyclopropyl)-1-((4-methylpiperazin-1-yl)amino)-4-((1-(3-(trifluoromethyl)phenyl)ethyl)amino)pyr ido[3,4-d]pyridazin-7(6H)-one formate], the IC50 is reported as 6.4 nM. C[C@@H](Nc1nnc(N2CCC3(CC2)CC3(F)F)c2cc(=O)n(C3(C)CC3)cc12)c1cccc(C(F)F)c1F [Example 186, (R)-1-(1,1-difluoro-6-azaspiro[2.5]octan-6-yl)-4-((1-(3-(difluoromethyl)-2-fluorophenyl)ethyl)amino)-6-(1-methylcyclopropyl) pyrido[3,4-d]pyridazin-7(6H)-one] showed an IC50 of 31.1 nM. With Cc1c([C@@H](C)Nc2nnc(N3CC4CC4C3)c3cc(=O)n(C4(C)CC4)cc23)cccc1C(F)(F)F (stereo partly drawn) [Example 62, 1-(3-azabicyclo[3.1.0]hexan-3-yl)-4-(((R)-1-(2-methyl-3-(trifluoromethyl)phenyl)ethyl)amino)-6-(1-methylcyclopropyl) pyrido[3,4-d]pyridazin-7(6H)-one] the IC50 was 9.4 nM. C[C@@H](Nc1nnc(N2CCC3(C2)CS(=O)(=O)C3)c2cc(=O)n(C3(C)CC3)cc12)c1cccc(C(F)F)c1F [Example 197, (R)-4-((1-(3-(difluoromethyl)-2-fluorophenyl)ethyl)amino)-1-(2,2-dioxido-2-thia-6-azaspiro[3.4]octan-6-yl)-6-(1-methylcyclopropyl) pyrido[3,4-d]pyridazin-7(6H)-one] was tested, and the IC50 was 5 nM. Compound CCN1CCN(c2nnc(N[C@H](C)c3cccc(C(F)F)c3F)c3cn(CC)c(=O)cc23)CC1 [Example 117, (R)-4-((1-(3-(difluoromethyl)-2-fluorophenyl)ethyl)amino)-6-ethyl-1-(4-ethylpiperazin-1-yl)pyrido[3,4-d]pyridazin-7(6H)-one] has an IC50 of 8.2 nM. Work on C[C@@H](Nc1nnc(NC2CCN(C)CC2)c2cc(=O)n(C3(C)CC3)cc12)c1cccc(C(F)F)c1F [Example 123, (R)-4-((1-(3-(difluoromethyl)-2-fluorophenyl)ethyl)amino)-6-(1-methylcyclopropyl)-1-((1-methylpiperidin-4-yl)amino)pyrido[3,4-d]pyridazin-7(6H)-one formate] yielded an IC50 of 3.8 nM. Cc1c(C#N)cccc1[C@@H](C)Nc1nnc(N2CCS(=O)(=O)CC2)c2cc(=O)n(C3CC3)cc12 [Example 44, (R)-3-(1-((6-cyclopropyl-1-(1,1-dioxidothiomorpholino)-7-oxo-6,7-dihydropyrido[3,4-d]pyridazin-4-yl)amino)ethyl)-2-methylbenzonitrile] showed an IC50 of 44.2 nM. Work on C[C@@H](Nc1nnc(N2CCN(C3CCCC3)CC2)c2cc(=O)n(C3(C)CC3)cc12)c1cccc(C(F)(F)F)c1F [Example 171, (R)-4-((1-(2-fluoro-3-(trifluoromethyl)phenyl)ethyl)amino)-1-(4-cyclopentylpiperazin-1-yl)-6-(1-methylcyclopropyl) pyrido[3,4-d]pyridazin-7(6H)-one] yielded an IC50 of 5 nM. Work on Cc1c([C@@H](C)Nc2nnc(N3CCN(C4CC4)CC3)c3cc(=O)n(C4(C)CC4)cc23)cccc1C(F)(F)F [Example 92, (R)-1-(4-cyclopropylpiperazin-1-yl)-4-((1-(2-methyl-3-(trifluoromethyl)phenyl)ethyl)amino)-6-(1-methylcyclopropyl) pyrido[3,4-d]pyridazin-7(6H)-one] yielded an IC50 of 10.2 nM. C[C@@H](Nc1nnc(N2CCN(C3CCCC3)CC2)c2cc(=O)n(N3CC4CCCC4C3)cc12)c1cccc(C(F)F)c1F (stereo partly drawn) [Example 140, 4-(((R)-1-(3-(difluoromethyl)-2-fluorophenyl)ethyl)amino)-6-(hexahydrocyclopenta[c]pyrrol-2(1H)-yl)-1-(4-cyclopentylpiperazin-1-yl)-pyrido[3,4-d]pyridazin-7(6H)-one] showed an IC50 of 8.5 nM. C[C@@H](Nc1nnc(N2CCC(F)(F)CC2)c2cc(=O)n(C3CC3)cc12)c1cccc(C(F)F)c1F [Example 19, (R)-6-cyclopropyl-4-((1-(3-(difluoromethyl)-2-fluorophenyl)ethyl)amino)-1-(4,4-difluoropiperidin-1-yl)pyrido[3,4-d]pyridazin-7(6H)-one] was tested, and the IC50 was 27.2 nM. For Cc1c([C@@H](C)Nc2nnc(N3CCC(F)(F)CC3)c3cc(=O)n(C4(C)CC4)cc23)cccc1C(F)(F)F [Example 65, (R)-1-(4,4-difluoropiperidin-1-yl)-4-((1-(2-methyl-3-(trifluoromethyl)phenyl)ethyl)amino)-6-(1-methylcyclopropyl) pyrido[3,4-d]pyridazin-7(6H)-one], the IC50 was 61 nM. C[C@@H](Nc1nnc(NC2CN3CCC2CC3)c2cc(=O)n(C3(C)CC3)cc12)c1cccc(C(F)F)c1F (stereo partly drawn) [Example 133, 4-(((R)-1-(3-(difluoromethyl)-2-fluorophenyl)ethyl)amino)-6-(1-methylcyclopropyl)-1-(quinuclidin-3-ylamino)pyrido[3,4-d]pyridazin-7(6H)-one] gave an IC50 of 6.5 nM. Compound C[C@@H](Nc1nnc(N2CCC(F)(F)CC2)c2cc(=O)n(C3(C)CC3)cc12)c1cccc(C(F)F)c1F [Example 23, (R)-4-((1-(3-(difluoromethyl)-2-fluorophenyl)ethyl)amino)-1-(4,4-difluoropiperidin-1-yl)-6-(1-methylcyclopropyl) pyrido[3,4-d]pyridazin-7(6H)-one] has an IC50 of 22.4 nM. Cc1c(C#N)cccc1[C@@H](C)Nc1nnc(N2CCN(C)CC2)c2cc(=O)n(C3CCN(C)CC3)cc12 [Example 135, (R)-2-methyl-3-(1-((1-(4-methylpiperazin-1-yl)-6-(1-methylpiperidin-4-yl)-7-oxo-6,7-dihydropyrido[3,4-d]pyridazin-4-yl)amino)ethyl)benz onitrile formate] gave an IC50 of 14.1 nM. Work on C[C@@H](Nc1nnc(N2CCN(C)CC2)c2cc(=O)n(C3(C)CC3)cc12)c1cccc2c1CCC2(F)F [Example 208, (R)-4-((1-(1,1-difluoro-2,3-dihydro-1H-inden-4-yl)ethyl)amino)-6-(1-methylcyclopropyl)-1-(4-methylpiperazin-1-yl)pyrido[3,4-d]pyridazin-7(6H)-one] yielded an IC50 of 4.5 nM. For C[C@@H](Nc1nnc(NN2CCOCC2)c2cc(=O)n(C3(C)CC3)cc12)c1cccc(C(F)(F)F)c1 [Example 158, (R)-6-(1-methylcyclopropyl)-1-(morpholinoamino)-4-((1-(3-(trifluoromethyl)phenyl)ethyl)amino)pyr ido[3,4-d]pyridazin-7(6H)-one formate], the IC50 was 6.9 nM. C[C@@H](Nc1nnc(N2CC(F)(F)C2)c2cc(=O)n(C3CC3)cc12)c1cccc(C(F)F)c1F [Example 20, (R)-6-cyclopropyl-1-(3,3-difluoroazetidin-1-yl)-4-((1-(3-(difluoromethyl)-2-fluorophenyl)ethyl)amino)pyrido[3,4-d]pyridazin-7(6H)-one] gave an IC50 of 23.8 nM.
